Blank lines part the entries; values can stand above or below the compound they belong to. Activity calls are given as the source filed them. No cut-off for these calls is given here.
Experiments:
[1] = target: Sodium channel protein type 1 subunit alpha (Homo sapiens) (UniProt P35498); assay: Modulator activity at human Nav1.1 expressed in human Flp-In-T-REx-293 cells assessed as half inactivation potential at 100 uM by whole cell patch clamp electrophysiology assay; type: cell-based
[2] = target: Sodium channel protein type 1 subunit alpha (Homo sapiens) (UniProt P35498); assay: Modulator activity at human Nav1.1 expressed in human Flp-In-T-REx-293 cells assessed as change in half inactivation potential at 100 uM by whole cell patch clamp electrophysiology assay; type: cell-based
[3] = target: Sodium channel protein type 1 subunit alpha (Homo sapiens) (UniProt P35498); assay: Modulator activity at human Nav1.1 expressed in human Flp-In-T-REx-293 cells assessed as half activation potential at 100 uM measured at holding potential of -120 mV by whole cell patch clamp electrophysiology assay; type: cell-based
[4] = target: Sodium channel protein type 1 subunit alpha (Homo sapiens) (UniProt P35498); assay: Modulator activity at human Nav1.1 expressed in human Flp-In-T-REx-293 cells assessed as change in half activation potential at 100 uM measured at holding potential of -120 mV by whole cell patch clamp electrophysiology assay; type: cell-based
[5] = Oral bioavailability in Sprague-Dawley rat at 50 mg/kg; type: ADME, organism-based; settings: in vivo
[6] = Apparent clearance during terminal phase in Sprague-Dawley rat at 50 mg/kg, po; type: ADME, organism-based; settings: in vivo
Mus musculus [7] = assay: Anti-seizure activity against ICR mouse […] assessed as increase in latency duration in stage 3 at 50 mg/kg, IG incubated for 1 hrs followed by PTZ stimulation; type: functional, organism-based
[8] = Half life in Sprague-Dawley rat at 50 mg/kg, po; type: ADME, organism-based; settings: in vivo
Mus musculus [9] = assay: Anti-seizure activity against ICR mouse […] assessed as increase in survival rate at 50 mg/kg, IG incubated for 1 hrs followed by PTZ stimulation; type: functional, organism-based
[10] = Cmax in Sprague-Dawley rat at 50 mg/kg, po; type: ADME, organism-based; set-up: dose 50 mg/kg, route po; settings: in vivo
[11] = AUClast in Sprague-Dawley rat plasma at 10 mg/kg, iv; type: ADME, organism-based; set-up: dose 10 mg/kg, route iv; settings: in vivo
Mus musculus [12] = assay: Anti-seizure activity against PTZ-induced ICR mouse seizure model assessed as increase in survival rate at 50 mg/kg, IG incubated for 1 hrs followed by PTZ stimulation and measured <30 mins; type: functional, organism-based; settings: time < 1.5 hrs
[13] = Apparent volume of distribution during terminal phase in Sprague-Dawley rat at 10 mg/kg, iv; type: ADME, organism-based; settings: in vivo
[14] = AUClast in Sprague-Dawley rat plasma at 50 mg/kg, po; type: ADME, organism-based; set-up: dose 50 mg/kg, route po; settings: in vivo
Mus musculus [15] = assay: Anti-seizure activity against PTZ-induced ICR mouse seizure model assessed as increase in average latency to stage 2 at 50 mg/kg, IG incubated for 1 hrs followed by PTZ stimulation and measured <30 mins; type: functional, organism-based; settings: time < 1.5 hrs
[16] = Half life in Sprague-Dawley rat at 10 mg/kg, iv; type: ADME, organism-based; settings: in vivo
[17] = Apparent clearance during terminal phase in Sprague-Dawley rat at 10 mg/kg, iv; type: ADME, organism-based; settings: in vivo
Mus musculus [18] = assay: Anti-seizure activity against PTZ-induced ICR mouse seizure model assessed as increase in average latency to stage 6 at 50 mg/kg, IG incubated for 1 hrs followed by PTZ stimulation and measured <30 mins; type: functional, organism-based; settings: time < 1.5 hrs
[19] = Tmax in Sprague-Dawley rat at 10 mg/kg, iv; type: ADME, organism-based; settings: in vivo
[20] = Apparent volume of distribution during terminal phase in Sprague-Dawley rat at 50 mg/kg, po; type: ADME, organism-based; settings: in vivo, read-out: Vz/F
[21] = Cmax in Sprague-Dawley rat at 10 mg/kg, iv; type: ADME, organism-based; set-up: dose 10 mg/kg, route iv; settings: in vivo
Mus musculus [22] = assay: Anti-seizure activity against PTZ-induced ICR mouse seizure model assessed as decrease in seizure severity stage at 50 mg/kg, IG incubated for 1 hrs followed by PTZ stimulation and measured <30 mins; type: functional, organism-based; settings: time < 1.5 hrs
[23] = Tmax in Sprague-Dawley rat at 50 mg/kg, po; type: ADME, organism-based; settings: in vivo
Mus musculus [24] = assay: Anti-seizure activity against ICR mouse […] assessed as decrease in seizure stage at 50 mg/kg, IG incubated for 1 hrs followed by PTZ stimulation; type: functional, organism-based
Mus musculus [25] = assay: Anti-seizure activity against ICR mouse […] assessed as decrease in tonic clonic seizure duration at 50 mg/kg, IG incubated for 1 hrs followed by PTZ stimulation; type: functional, organism-based

V1/2 [1]: -64.2 mV
delta(V1/2) [2]: -3.79 mV
V1/2 [3]: -43.2 mV
delta(V1/2) [4]: -1.5 mV
Compound: CN(C)/N=N/c1c(C(N)=O)nnn1Cc1ccccc1

V1/2 [1]: -62.9 mV
delta(V1/2) [2]: -3.13 mV
V1/2 [3]: -42.7 mV
delta(V1/2) [4]: -1.7 mV
Compound: CN(C)/N=N/c1c(C(N)=O)nnn1Cc1ccccc1Cl

V1/2 [1]: -66.7 mV
delta(V1/2) [2]: -7.01 mV
V1/2 [3]: -41.3 mV
delta(V1/2) [4]: -7.39 mV
Compound: NC(=O)c1cn(Cc2c(F)cccc2F)nn1

V1/2 [1]: -69.6 mV
delta(V1/2) [2]: -6.54 mV
V1/2 [3]: -39.5 mV
delta(V1/2) [4]: -4.56 mV
Compound: CNC(=O)c1nnn(Cc2c(F)cccc2F)c1/N=N/N(C)C

V1/2 [1]: -71.3 mV
delta(V1/2) [2]: -4.72 mV
V1/2 [3]: -35.7 mV
delta(V1/2) [4]: -1.56 mV
Compound: COC(=O)CCCNC(=O)c1nnn(Cc2c(F)cccc2F)c1/N=N/N(C)C

V1/2 [1]: -61.5 mV
delta(V1/2) [2]: -0.74 mV
V1/2 [3]: -31.9 mV
delta(V1/2) [4]: -2.65 mV
Compound: CN(C)/N=N/c1c(C(N)=O)nnn1CCc1c(F)cccc1F

V1/2 [1]: -69.8 mV
bioavailability [5]: 34.3%
CLz/F [6]: 169 mL/min/kg
t1/2 [8]: 63 min
Cmax [10]: 4496.74 ng/mL
AUClast [11]: 3190 ng·h/mL
Vz/F [13]: 0.93 L/kg
AUClast [14]: 5460 ng·h/mL
delta(V1/2) [2]: -10.1 mV
t1/2 [16]: 11.4 min
CLz/F [17]: 54.2 mL/min/kg
V1/2 [3]: -46.1 mV
Tmax [19]: 10.2 min
Vd/F [20]: 13.6 L/kg
Cmax [21]: 5203.99 ng/mL
delta(V1/2) [4]: -1.81 mV
Tmax [23]: 10.2 min
Compound: CN(C)/N=N/c1c(C(N)=O)nnn1Cc1c(F)cccc1F
Activity (Mus musculus [7]): Active
Activity (Mus musculus [9]): Active
Activity (Mus musculus [12]): Active
Activity (Mus musculus [15]): Active
Activity (Mus musculus [18]): Active
Activity (Mus musculus [22]): Active
Activity (Mus musculus [24]): Active
Activity (Mus musculus [25]): Active

V1/2 [1]: -66.2 mV
delta(V1/2) [2]: -3.93 mV
V1/2 [3]: -45.4 mV
delta(V1/2) [4]: -1.05 mV
Compound: Cc1ccc(Cn2nnc(C(N)=O)c2/N=N/N(C)C)cc1

V1/2 [1]: -78.8 mV
delta(V1/2) [2]: -11.3 mV
V1/2 [3]: -36.2 mV
delta(V1/2) [4]: 1.95 mV
Compound: CN(C)/N=N/c1c(C(=O)NCc2ccccc2)nnn1Cc1c(F)cccc1F
Activity (Mus musculus [12]): Active
Activity (Mus musculus [15]): Active
Activity (Mus musculus [18]): Active
Activity (Mus musculus [22]): Active
Activity (Mus musculus [24]): inactive

V1/2 [1]: -66.6 mV
delta(V1/2) [2]: -4.73 mV
V1/2 [3]: -30.9 mV
delta(V1/2) [4]: -3.11 mV
Compound: CN(C)/N=N/c1c(C(N)=O)nnn1Cc1ccccc1F

V1/2 [1]: -62 mV
delta(V1/2) [2]: -4 mV
V1/2 [3]: -39 mV
delta(V1/2) [4]: -0.99 mV
Compound: CN(C)/N=N/c1c(C(N)=O)nnn1Cc1ccc(F)cc1

V1/2 [1]: -64.2 mV
delta(V1/2) [2]: -3.87 mV
V1/2 [3]: -32.4 mV
delta(V1/2) [4]: -2.85 mV
Compound: CN(C)/N=N/c1c(C(=O)NC2CC2)nnn1Cc1c(F)cccc1F

V1/2 [1]: -73 mV
delta(V1/2) [2]: -5.55 mV
V1/2 [3]: -36.5 mV
delta(V1/2) [4]: -1.64 mV
Compound: CN(C)/N=N/c1c(C(=O)Nc2ccccc2)nnn1Cc1c(F)cccc1F

V1/2 [1]: -63.1 mV
delta(V1/2) [2]: -4.36 mV
V1/2 [3]: -36.5 mV
delta(V1/2) [4]: -4.15 mV
Compound: CN(C)/N=N/c1c(C(N)=O)nnn1Cc1ccc(F)cc1F

V1/2 [1]: -64.3 mV
delta(V1/2) [2]: -4.24 mV
V1/2 [3]: -35.6 mV
delta(V1/2) [4]: -1.09 mV
Compound: CN(C)/N=N/c1c(C(N)=O)nnn1-c1c(F)cccc1F

— ChEMBL document CHEMBL5223104, “Discovery of triazenyl triazoles as Nav1.1 channel blockers for treatment of epilepsy” (Bioorg Med Chem Lett, 2022)
